Measurements reported in US8778964B2, “Hydroxy-substituted imidazo[1,2-a]-pyridinecarboxamides and their use” (Bayer Pharma Aktiengesellschaft, priority 2012, dated 2014).
Where a name gives a salt, the structure may show the parent alone.

Tested on: recombinant guanylate cyclase reporter cell line
Test: Action on recombinant guanylate cyclase reporter cell line (MEC)
Assay type: cell-based
Settings: in some cases mean values obtained from individual determinations
Experimental: B-2. Action on Recombinant Guanylate Cyclase Reporter Cell Line
The cellular action of the compounds according to the invention is determined on a recombinant guanylate cyclase reporter cell line, as described in F. Wunder et al., Anal. Biochem. 339, 104-112 (2005).
Representative values (MEC=minimal effective concentration) for the compounds according to the invention are shown in the following table (in some cases as mean values obtained from individual determinations): […]

| SMILES | minimal effective concentration [µM] |
| --- | --- |
| Cc1nc2c(OCc3c(F)cccc3F)cccn2c1C(=O)NC(CO)c1ccc(S(C)(=O)=O)cc1 (racemic) [Example 120, rac-8-[(2,6-difluorobenzyl)oxy]-N-{2-hydroxy-1-[4-(methylsulphonyl)phenyl]ethyl}-2-methylimidazo[1,2-a]pyridine-3-carboxamide] | 1 |
| CCC(CO)NC(=O)c1c(C)nc2c(OCC3CCCCC3)cccn12 (racemic) [Example 69, (rac)-8-(cyclohexylmethoxy)-N-(1-hydroxybutan-2-yl)-2-methylimidazo[1,2-a]pyridine-3-carboxamide formate] | 0.1 |
| Cc1nc2c(OCc3c(F)cccc3F)cccn2c1C(=O)NC(CO)c1ccc(F)cc1 (single isomer, unassigned; ent-8) [Example 107, ent-8-[(2,6-Difluorobenzyl)oxy]-N-[1-(4-fluorophenyl)-2-hydroxyethyl]-2-methylimidazo[1,2-a]-pyridine-3-carboxamide] | 0.1 |
| Cc1cccc(COc2cccn3c(C(=O)NC(CO)CO)c(C)nc23)c1Cl [Example 52, 8-[(2-chloro-3-methylbenzyl)oxy]-N-(1,3-dihydroxypropan-2-yl)-2-methylimidazo[1,2-a]-pyridine-3-carboxamide] | 10 |
| CCCCC(NC(=O)c1c(C)nc2c(OC(C)c3c(F)cccc3F)cc(C)cn12)C(C)(C)O (single isomer, unassigned; ent-8) [Example 171, ent-8-[1-(2,6-Difluorophenyl)ethoxy]-N-(2-hydroxy-2-methylheptan-3-yl)-2,6-dimethylimidazo-[1,2-a]pyridine-3-carboxamide] | 1 |
| CCCC[C@H](CO)NC(=O)c1c(C)nc2c(OCc3c(C)cccc3C)cccn12 [Example 13, 8-[(2,6-dimethylbenzyl)oxy]-N-[(2R)-1-hydroxyhexan-2-yl]-2-methylimidazo[1,2-a]pyridine-3-carboxamide] | 3 |
| Cc1nc2c(OCc3c(F)cccc3F)cccn2c1C(=O)NC(C)(C)[C@H](C)O [Example 20, 8-[(2,6-difluorobenzyl)oxy]-N-[(3S)-3-hydroxy-2-methylbutan-2-yl]-2-methylimidazo[1,2-a]-pyridine-3-carboxamide] | 1 |
| CCCC[C@H](CO)NC(=O)c1c(C)nc2c(OCCC(C)C)cc(C)cn12 [Example 166, N-[(2R)-1-Hydroxyhexan-2-yl]-2,6-dimethyl-8-(3-methylbutoxy)imidazo[1,2-a]pyridine-3-carboxamide] | 1 |
| Cc1nc2c(OCc3c(F)cccc3F)cccn2c1C(=O)NCC(O)C(F)(F)F (single isomer, unassigned; ent-8) [Example 109, ent-8-[(2,6-Difluorobenzyl)oxy]-2-methyl-N-(3,3,3-trifluoro-2-hydroxypropyl)imidazo[1,2-a]-pyridine-3-carboxamide] | 0.1 |
| CCCC[C@H](CO)NC(=O)c1c(C)nc2c(OCc3c(F)cccc3F)cc(C3CC3)cn12 [Example 61, 6-cyclopropyl-8-[(2,6-difluorobenzyl)oxy]-N-[(2R)-1-hydroxyhexan-2-yl]-2-methylimidazo[1,2-a]pyridine-3-carboxamide] | 1 |
| [2H]C([2H])(Oc1cccn2c(C(=O)N[C@@H](CO)CCCC)c(C)nc12)c1c(F)cccc1F [Example 115, 8-{[(2,6-difluorophenyl)(^2H2)methyl]oxy}-N-[(2R)-1-hydroxyhexan-2-yl]-2-methylimidazo[1,2-a]pyridine-3-carboxamide] | 0.01 |
| Cc1nc2c(OCc3c(F)cccc3F)cccn2c1C(=O)N[C@@H](CO)CCCO [Example 130, 8-[(2,6-difluorobenzyl)oxy]-N-[(2R)-1,5-dihydroxypentan-2-yl]-2-methylimidazo[1,2-a]pyridine-3-carboxamide] | 1 |
| CCCC[C@@H](NC(=O)c1c(C)nc2c(OCc3c(F)cccc3F)cccn12)C(C)O (stereo partly drawn) [Example 139, 8-[(2,6-Difluorobenzyl)oxy]-N-[(3R)-2-hydroxyheptan-3-yl]-2-methylimidazo[1,2-a]pyridine-3-carboxamide] | 0.03 |
| Cc1nc2c(OCC3CCCCC3)cccn2c1C(=O)NCCCO [Example 82, 8-(cyclohexylmethoxy)-N-(3-hydroxypropyl)-2-methylimidazo[1,2-a]pyridine-3-carboxamide] | 0.3 |
| Cc1nc2c(OCc3c(F)cccc3F)cccn2c1C(=O)NC[C@H](O)c1ccccc1 [Example 33, 8-[(2,6-difluorobenzyl)oxy]-N-[(2R)-2-hydroxy-2-phenylethyl]-2-methylimidazo[1,2-a]pyridine-3-carboxamide] | 0.3 |
| Cc1nc2c(OCc3c(F)cccc3F)cccn2c1C(=O)NCC(O)COc1ccccc1 (stereo not drawn) [Example 137, 8-[(2,6-difluorobenzyl)oxy]-N-(2-hydroxy-3-phenoxypropyl)-2-methylimidazo[1,2-a]-pyridine-3-carboxamide] | 3 |
| CCC[C@H](CO)NC(=O)c1c(C)nc2c(OCC3CCCCC3)cccn12 [Example 67, 8-(cyclohexylmethoxy)-N-[(2R)-1-hydroxypentan-2-yl]-2-methylimidazo[1,2-a]pyridine-3-carboxamide] | 0.03 |
| Cc1nc2c(OCc3c(F)cccc3F)cccn2c1C(=O)NC(C)C(O)C(F)(F)F (single isomer, unassigned) [Example 145, 8-[(2,6-Difluorobenzyl)oxy]-2-methyl-N-(4,4,4-trifluoro-3-hydroxybutan-2-yl)imidazo[1,2-a]-pyridine-3-carboxamide] | >10 |
| CSCC[C@H](CO)NC(=O)c1c(C)nc2c(OCc3c(F)cccc3F)cccn12 [Example 25, 8-[(2,6-difluorobenzyl)oxy]-N-[(2R)-1-hydroxy-4-(methylsulphanyl)butan-2-yl]-2-methyl-imidazo[1,2-a]pyridine-3-carboxamide] | 0.1 |
| CCCC[C@H](CO)NC(=O)c1c(C)nc2c(OCc3ccccc3F)cccn12 [Example 5, 8-[(2-fluorobenzyl)-oxy]-N-[(2R)-1-hydroxyhexan-2-yl]-2-methylimidazo[1,2-a]pyridine-3-carboxamide] | 0.1 |
| CCCC[C@H](CO)NC(=O)c1c(C)nc2c(OCc3cccc(F)c3F)cccn12 [Example 10, 8-[(2,3-difluorobenzyl)oxy]-N-[(2R)-1-hydroxyhexan-2-yl]-2-methylimidazo[1,2-a]pyridine-3-carboxamide] | 0.3 |
| Cc1nc2c(OCC3CCCCC3)cccn2c1C(=O)NC1CCCC1O (stereo not drawn) [Example 83, 8-(cyclohexylmethoxy)-N-(2-hydroxycyclopentyl)-2-methylimidazo[1,2-a]pyridine-3-carboxamide] | 0.3 |
| Cc1nc2c(OCc3c(F)cccc3F)cccn2c1C(=O)NC(CC(F)(F)F)C(C)(C)O (racemic) [Example 148, rac-8-[(2,6-Difluorobenzyl)oxy]-2-methyl-N-(1,1,1-trifluoro-4-hydroxy-4-methylpentan-3-yl)-imidazo[1,2-a]pyridine-3-carboxamide] | 0.03 |
| Cc1nc2c(OCc3c(F)cccc3F)cccn2c1C(=O)N[C@H]1CC[C@H](O)CC1 [Example 42, (rac)-8-[(2,6-difluorobenzyl)oxy]-N-(trans-4-hydroxycyclohexyl)-2-methylimidazo[1,2-a]-pyridine-3-carboxamide] | 1 |
